Laboratory results taken from patent publication US20080031903A1, “METHOD OF TREATING OCULAR INFECTIONS” (priority 2006, published 2008).
Where “and” joins values, the source holds several entries; their conditions need not be identical. Equal entries are not always repeated. Entries after “also recorded” stand apart in the source; their conditions may differ.

What was measured:
[1] = tested on: Ad5; test: Ad5/NZW rabbit ocular model, Example 5 (IG-Ad-R3); assay type: in vivo
Procedure: Additional experiments were conducted substantially as described in Example 3, in order to determine the antiviral efficacy of a 100 mg/ml solution of IG (intravenous Immune Globulin) in the Ad5/NZW rabbit ocular model.

[2] = tested on: Ad5; test: Ad5/NZW rabbit ocular model, combined analysis of Examples 3 and 5; assay type: in vivo
From the text: The following summarizes the in vivo studies provided in Examples 3 and 5. Data from the two studies were combined, analyzed by Minitab statistical software using Analysis of Variance (ANOVA), and X^2 analyses. Significance was established at the p<0.05 confidence.
The daily reduction in percent Ad5 positive cultures per total for all treatment groups is presented graphically in FIG. 4.
The mean combined Ad5 ocular titers represent a global measure of adenovirus replication during the early and late phases of infection. These were determined by calculating the mean and standard deviation of all ocular cultures from each treatment group during the early and late phases (n=80 for all groups).
The mean duration of shedding was estimated by determining the last day on which adenovirus positive cultures were obtained and calculating the mean and standard deviation.

[3] = Days 1-5, Early Phase of Infection
[4] = Days 7-14, Late Phase of Infection

In the case of `Nc1ccn(C[C@@H](CO)OCP(=O)(O)O)c(=O)n1` [0.5% Cidofovir, Cidofovir], the “Ad5 ocular viral titer, individual eye” value ([1]; D 0, before treatment) is reported as 1050 pfu/ml and 50 pfu/ml and 1350 pfu/ml and 1200 pfu/ml and 30 pfu/ml and 6300 pfu/ml and 20 pfu/ml and 600 pfu/ml and 750 pfu/ml and 140 pfu/ml, the “Ad5 ocular viral titer, individual eye” value ([1]; D 1) is reported as 35 pfu/ml and 10 pfu/ml and 550 pfu/ml and 5 pfu/ml and 500 pfu/ml and 60 pfu/ml and 200 pfu/ml and 700 pfu/ml (2×) and 400 pfu/ml and the “Ad5 ocular viral titer, individual eye” value ([1]; D 3) is reported as 1500 pfu/ml and 5 pfu/ml and 2900 pfu/ml (2×) and 105 pfu/ml and 2600 pfu/ml and 1350 pfu/ml and 1600 pfu/ml and 4500 pfu/ml and 3500 pfu/ml. The “Ad5 ocular viral titer, individual eye” value ([1]; D 4) was 0 pfu/ml (2×) and 5 pfu/ml and 750 pfu/ml and 1100 pfu/ml and 400 pfu/ml and 1150 pfu/ml and 7100 pfu/ml and 2000 pfu/ml and 1900 pfu/ml, the “Ad5 ocular viral titer, individual eye” value ([1]; D 5) was 15 pfu/ml and 0 pfu/ml (2×) and 750 pfu/ml and 5 pfu/ml and 1400 pfu/ml and 700 pfu/ml and 600 pfu/ml and 850 pfu/ml and 950 pfu/ml and the “Ad5 ocular viral titer, individual eye” value ([1]; D 7) was 0 pfu/ml (6×) and 25 pfu/ml and 5 pfu/ml (2×) and 10 pfu/ml. For the same compound, the “Ad5 ocular viral titer, individual eye” value ([1]; D 9) was 0 pfu/ml, the “Ad5 ocular viral titer, individual eye” value ([1]; D 11) was 0 pfu/ml and the “Ad5 ocular viral titer, individual eye” value ([1]; D 14) was 0 pfu/ml. For the same compound, the “Positive Cultures per Total” value ([1]; Day 0, before treatment) was 10/10, the “Positive Cultures per Total, percent” value ([1]; Day 0, before treatment) was 100% and the “Positive Cultures per Total” value ([1]; Day 1) was 10/10. For the same compound, the “Positive Cultures per Total, percent” value ([1]; Day 1) was 100%, the “Positive Cultures per Total” value ([1]; Day 3) was 10/10 and the “Positive Cultures per Total, percent” value ([1]; Day 3) was 100%. The “Positive Cultures per Total” value ([1]; Day 4) was 8/10, the “Positive Cultures per Total, percent” value ([1]; Day 4) was 80% and the “Positive Cultures per Total” value ([1]; Day 5) was 8/10. For the same compound, the “Positive Cultures per Total, percent” value ([1]; Day 5) was 80%, the “Positive Cultures per Total” value ([1]; Day 7) was 4/10 and the “Positive Cultures per Total, percent” value ([1]; Day 7) was 40% and 80%. For the same compound, the “Positive Cultures per Total” value ([1]; Day 9) was 0/10, the “Positive Cultures per Total, percent” value ([1]; Day 9) was 0% and the “Positive Cultures per Total” value ([1]; Day 11) was 0/10. The “Positive Cultures per Total, percent” value ([1]; Day 11) was 0%, the “Positive Cultures per Total” value ([1]; Day 14) was 0/10 and the “Positive Cultures per Total, percent” value ([1]; Day 14) was 0%. The “Positive Cultures per Total, Total” value [1, 3] was 36/40, the “Positive Cultures per Total, Total (%)” value [1, 3] was 90% and the “Positive Cultures per Total, Total” value ([1]; Days 1-14) was 40/80. For the same compound, the “Positive Cultures per Total, Total (%)” value ([1]; Days 1-14) was 50%, the “Positive Cultures per Total, Total” value [1, 4] was 4/40 and the “Positive Cultures per Total, Total (%)” value [1, 4] was 10%. For the same compound, the “Mean Combined Ocular Titers Days 1-5, comparison” value ([1]; Early Phase) was “significantly lower Mean Combined Ocular Titers Days 1-5 compared with the saline Control”, the “Mean Combined Ocular Titers Days 7-14, comparison” value ([1]; Late Phase) was “significantly lower Mean Combined Ocular Titers Days 7-14 compared with the saline Control” and the “Positive Cultures per Total Days 7-14, comparison” value ([1]; Late Phase) was “significantly fewer Positive Cultures per Total Days 7-14 compared with 10% IG and the saline Control”. For the same compound, the “Mean Daily Ocular Titers, comparison” value ([1]; days as stated) was “significantly lower titer on Day 7 compared the saline Control”, the “Antiviral efficacy, conclusion” value ([1]; rabbit, in vivo) was “demonstrated its proven antiviral efficacy” and the “Mean Duration of Shedding, comparison” value ([1]; rabbit, in vivo) was “significantly shorter mean durations of shedding compared with the saline Control; also recorded: significantly shorter mean duration of shedding compared with 10% IG”. The “Positive Cultures per Total Days 1-14, comparison” value ([1]; rabbit, in vivo) was “significantly fewer Positive Cultures per Total Days 1-14 compared with the saline Control”, the “Adenoviral Positive Culture/total, Early Phase” value ([2]; Days 1-5) was 72/80 and the “Adenoviral Positive Culture/total, Early Phase, percent” value ([2]; Days 1-5) was 90.0%. The “Mean Combined Ad5 titer, Early Phase, Mean ± Sd” value ([2]; Days 1-5, n = 80) was 1.4 ± 2.1 × 10^3 pfu/ml, the “Adenoviral Positive Culture/total, Overall” value ([2]; Days 1-14) was 78/160 and the “Adenoviral Positive Culture/total, Overall, percent” value ([2]; Days 1-14) was 48.75%. The “Adenoviral Positive Culture/total, Late Phase” value ([2]; Days 7-14) was 6/80, the “Adenoviral Positive Culture/total, Late Phase, percent” value ([2]; Days 7-14) was 7.5% and the “Mean Combined Ad5 titer, Late Phase, Mean ± Sd” value ([2]; Days 7-14, n = 80) was 0.8 ± 0.4 × 10^0 pfu/ml. For the same compound, the “Duration of Ad5 Shedding, Mean ± Sd” value ([2]; n = 20) was 5.3 ± 1.3 days, the “Antiviral activity, overall comparison” value ([2]; rabbit, in vivo) was “equivalent antiviral inhibitory activity” and the “Duration of shedding, comparison” value ([2]; rabbit, in vivo) was “significantly decreased the duration of shedding compared with the saline control; also recorded: significantly decreased the Mean Duration of shedding compared with IG”.
